# Structures can show the parent of a compound that is named as a salt.
# Biological target: T1, epithelial sodium channel (ENaC) (Homo sapiens, UniProt P37088+P51168+P51170)
# T1 construct: host or cells: primary human bronchial epithelial cells (HBECs), air-liquid interface culture
# T1 sequence (P37088 1-669): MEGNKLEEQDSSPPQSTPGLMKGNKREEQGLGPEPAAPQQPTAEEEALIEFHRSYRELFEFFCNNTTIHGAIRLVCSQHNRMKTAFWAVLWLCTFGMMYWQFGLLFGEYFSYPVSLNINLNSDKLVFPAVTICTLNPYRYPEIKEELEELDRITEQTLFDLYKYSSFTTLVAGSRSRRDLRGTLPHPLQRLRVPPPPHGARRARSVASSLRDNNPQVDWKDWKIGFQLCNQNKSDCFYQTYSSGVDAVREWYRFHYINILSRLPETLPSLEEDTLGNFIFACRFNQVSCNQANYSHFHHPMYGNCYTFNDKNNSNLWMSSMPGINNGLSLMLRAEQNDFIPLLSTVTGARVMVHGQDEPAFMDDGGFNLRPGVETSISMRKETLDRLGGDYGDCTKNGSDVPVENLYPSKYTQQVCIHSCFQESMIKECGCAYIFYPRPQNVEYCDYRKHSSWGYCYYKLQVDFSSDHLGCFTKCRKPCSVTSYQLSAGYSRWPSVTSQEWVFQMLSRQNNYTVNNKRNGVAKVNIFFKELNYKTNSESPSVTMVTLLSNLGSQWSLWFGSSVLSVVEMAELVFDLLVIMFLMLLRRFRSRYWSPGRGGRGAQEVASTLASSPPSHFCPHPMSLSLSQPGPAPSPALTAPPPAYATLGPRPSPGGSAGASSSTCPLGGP
# T1 sequence (P51168 1-640): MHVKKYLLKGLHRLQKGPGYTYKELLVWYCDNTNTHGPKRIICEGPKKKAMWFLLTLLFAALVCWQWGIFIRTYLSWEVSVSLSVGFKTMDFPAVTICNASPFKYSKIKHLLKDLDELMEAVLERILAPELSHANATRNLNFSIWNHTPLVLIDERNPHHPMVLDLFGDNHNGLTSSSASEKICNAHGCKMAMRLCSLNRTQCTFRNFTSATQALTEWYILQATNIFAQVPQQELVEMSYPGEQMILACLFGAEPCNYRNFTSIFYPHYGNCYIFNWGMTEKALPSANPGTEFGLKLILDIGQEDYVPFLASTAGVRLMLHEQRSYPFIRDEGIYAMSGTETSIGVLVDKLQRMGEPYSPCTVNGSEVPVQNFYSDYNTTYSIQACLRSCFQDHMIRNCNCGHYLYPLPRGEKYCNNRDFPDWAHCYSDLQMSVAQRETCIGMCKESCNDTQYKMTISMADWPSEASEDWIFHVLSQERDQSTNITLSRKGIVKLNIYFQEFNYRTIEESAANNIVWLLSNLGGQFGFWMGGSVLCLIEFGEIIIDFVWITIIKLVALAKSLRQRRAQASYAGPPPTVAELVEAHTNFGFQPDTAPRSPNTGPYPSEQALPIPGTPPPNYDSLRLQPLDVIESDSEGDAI
# T1 sequence (P51170 1-649): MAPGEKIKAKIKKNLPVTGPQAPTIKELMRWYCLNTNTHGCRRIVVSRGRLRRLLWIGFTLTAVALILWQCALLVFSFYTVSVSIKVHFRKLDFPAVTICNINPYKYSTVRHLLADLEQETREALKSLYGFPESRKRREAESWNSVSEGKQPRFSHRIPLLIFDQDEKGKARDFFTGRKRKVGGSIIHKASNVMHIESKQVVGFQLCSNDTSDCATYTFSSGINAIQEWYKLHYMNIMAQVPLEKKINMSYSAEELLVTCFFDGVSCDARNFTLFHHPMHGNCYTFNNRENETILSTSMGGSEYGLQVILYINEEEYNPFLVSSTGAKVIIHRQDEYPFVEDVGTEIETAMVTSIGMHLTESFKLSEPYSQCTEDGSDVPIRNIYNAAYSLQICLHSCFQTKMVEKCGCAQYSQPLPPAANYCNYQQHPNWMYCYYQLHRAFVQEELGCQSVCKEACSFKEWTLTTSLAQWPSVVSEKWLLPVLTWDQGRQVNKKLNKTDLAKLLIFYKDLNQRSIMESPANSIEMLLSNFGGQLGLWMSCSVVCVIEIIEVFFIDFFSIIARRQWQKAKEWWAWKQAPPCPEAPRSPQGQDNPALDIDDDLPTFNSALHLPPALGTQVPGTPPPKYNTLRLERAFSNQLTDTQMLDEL
# Test: Short circuit current (ISC) measurements in human bronchial epithelial cells, inhibition of amiloride-sensitive ISC
# Format: cell-based
# Details: inhibition of the amiloride-sensitive ISC, HBECs at air-liquid interface, compound added to apical chamber
# Method: Compounds of Formula E and their pharmaceutically acceptable salts, hereinafter referred to alternatively as “illustrative ENaC inhibitors of the invention”, are useful as pharmaceuticals. In particular, the compounds have good ENaC blocker activity and may be tested in the following assays.
# Human Bronchial Epithelial cells (HBECs) (Cambrex) were cultured under air-liquid interface conditions to provide a well differentiated mucociliary phenotype.
# HBECs were cultured using a modification of the method described by Gray and colleagues (Gray et al., 1996). […]
# Snapwell inserts were mounted in Vertical Diffusion Chambers (Costar) and were bathed with continuously gassed Ringer solution (5% CO2 in O2; pH 7.4) maintained at 37° C. containing (in mM): 120 NaCl, 25 NaHCO3, 3.3 KH2PO4, 0.8 K2HPO4, 1.2 CaCl2, 1.2 MgCl2, and 10 glucose. […] RT was measured by applying a 1- or 2-mV pulse at 30-s intervals and calculating RT by Ohm's law. Data were recorded using a PowerLab workstation (ADInstruments).
# Test compounds were prepared as a 10 mM stock solution in DMSO (95%). […] At the completion of the concentration-response experiment, amiloride (10 μM) was added into the apical chamber to enable the total amiloride-sensitive current to be measured. […]
# Results are expressed as the mean % inhibition of the amiloride-sensitive ISC. […]
row,SMILES,IC50 [µM]
1,"CCCC1N/C(=N/C(=O)c2nc(Cl)c(N)nc2N)NC1CCCc1ccc(OCC(O)CO)cc1 (stereo in doubt) [Example 29, (E)-3,5-diamino-6-chloro-N-(4-(3-(4-((S)-2,3-dihydroxypropoxy)phenyl)propyl)-5-propylimidazolidin-2-ylidene)pyrazine-2-carboxamide hydrochloride]",0.005
2,"Cc1oc(-c2ccccc2)nc1COc1ccc(S(=O)(=O)N2CCC3(CC2)CN/C(=N\C(=O)c2nc(Cl)c(N)nc2N)N3)cc1 [Example 238, 3,5-Diamino-6-chloro-pyrazine-2-carboxylic acid [8-[4-(5-methyl-2-phenyl-oxazol-4-ylmethoxy)-benzenesulfonyl]-1,3,8-triaza-spiro[4.5]dec-(2E)-ylidene]-amide]",0.0119

# Biological target: T2, ΔF508-CFTR (Homo sapiens, UniProt P13569, DEL508-508)
# T2 construct: expressed in transfected cells
# Test: Membrane potential optical (FRET/VIPR) assay, identification of potentiator compounds, NIH3T3 cells expressing ΔF508-CFTR
# Format: cell-based
# Details: Table II.A-4; EC50 of certain embodiments
# From the text: I) Membrane Potential Optical Methods for Assaying ΔF508-CFTR Modulation Properties of Compounds
# The optical membrane potential assay utilized voltage-sensitive FRET sensors described by Gonzalez and Tsien (See, Gonzalez, J. E. and R. Y. Tsien (1995) “Voltage sensing by fluorescence resonance energy transfer in single cells” Biophys J 69(4): 1272-80, and Gonzalez, J. E. and R. Y. Tsien (1997) “Improved indicators of cell membrane potential that use fluorescence resonance energy transfer” Chem Biol 4(4): 269-77) in combination with instrumentation for measuring fluorescence changes such as the Voltage/Ion Probe Reader (VIPR) (See, Gonzalez, J. E., K. Oades, et al. (1999) “Cell-based assays and instrumentation for screening ion-channel targets” Drug Discov Today 4(9): 431-439).
# These voltage sensitive assays are based on the change in fluorescence resonant energy transfer (FRET) between the membrane-soluble, voltage-sensitive dye, DiSBAC2(3), and a fluorescent phospholipid, CC2-DMPE, which is attached to the outer leaflet of the plasma membrane and acts as a FRET donor. Changes in membrane potential (Vm) cause the negatively charged DiSBAC2(3) to redistribute across the plasma membrane and the amount of energy transfer from CC2-DMPE changes accordingly. The changes in fluorescence emission were monitored using VIPR™ II, which is an integrated liquid handler and fluorescent detector designed to conduct cell-based screens in 96- or 384-well microtiter plates.
# To identify potentiators of ΔF508-CFTR, a double-addition HTS assay format was developed. During the first addition, a Cl^−-free medium with or without test compound was added to each well. After 22 sec, a second addition of Cl^−-free medium containing 2-10 μM forskolin was added to activate ΔF508-CFTR. The extracellular Cl^− concentration following both additions was 28 mM, which promoted Cl^− efflux in response to ΔF508-CFTR activation and the resulting membrane depolarization was optically monitored using the FRET-based voltage-sensor dyes. Solutions
# Bath Solution #1: (in mM) NaCl 160, KCl 4.5, CaCl2 2, MgCl2 1, HEPES 10, pH 7.4 with NaOH. Chloride-free bath solution: Chloride salts in Bath Solution #1 are substituted with gluconate salts. CC2-DMPE: Prepared as a 10 mM stock solution in DMSO and stored at −20° C. DiSBAC2(3): Prepared as a 10 mM stock in DMSO and stored at −20° C.
# NIH3T3 mouse fibroblasts stably expressing ΔF508-CFTR are used for optical measurements of membrane potential. The cells are maintained at 37° C. in 5% CO2 and 90% humidity in Dulbecco's modified Eagle's medium supplemented with 2 mM glutamine, 10% fetal bovine serum, 1× NEAA, β-ME, 1× pen/strep, and 25 mM HEPES in 175 cm^2 culture flasks. […]
# T2 sequence (P13569 with tags, fused parts or gaps DEL508-508): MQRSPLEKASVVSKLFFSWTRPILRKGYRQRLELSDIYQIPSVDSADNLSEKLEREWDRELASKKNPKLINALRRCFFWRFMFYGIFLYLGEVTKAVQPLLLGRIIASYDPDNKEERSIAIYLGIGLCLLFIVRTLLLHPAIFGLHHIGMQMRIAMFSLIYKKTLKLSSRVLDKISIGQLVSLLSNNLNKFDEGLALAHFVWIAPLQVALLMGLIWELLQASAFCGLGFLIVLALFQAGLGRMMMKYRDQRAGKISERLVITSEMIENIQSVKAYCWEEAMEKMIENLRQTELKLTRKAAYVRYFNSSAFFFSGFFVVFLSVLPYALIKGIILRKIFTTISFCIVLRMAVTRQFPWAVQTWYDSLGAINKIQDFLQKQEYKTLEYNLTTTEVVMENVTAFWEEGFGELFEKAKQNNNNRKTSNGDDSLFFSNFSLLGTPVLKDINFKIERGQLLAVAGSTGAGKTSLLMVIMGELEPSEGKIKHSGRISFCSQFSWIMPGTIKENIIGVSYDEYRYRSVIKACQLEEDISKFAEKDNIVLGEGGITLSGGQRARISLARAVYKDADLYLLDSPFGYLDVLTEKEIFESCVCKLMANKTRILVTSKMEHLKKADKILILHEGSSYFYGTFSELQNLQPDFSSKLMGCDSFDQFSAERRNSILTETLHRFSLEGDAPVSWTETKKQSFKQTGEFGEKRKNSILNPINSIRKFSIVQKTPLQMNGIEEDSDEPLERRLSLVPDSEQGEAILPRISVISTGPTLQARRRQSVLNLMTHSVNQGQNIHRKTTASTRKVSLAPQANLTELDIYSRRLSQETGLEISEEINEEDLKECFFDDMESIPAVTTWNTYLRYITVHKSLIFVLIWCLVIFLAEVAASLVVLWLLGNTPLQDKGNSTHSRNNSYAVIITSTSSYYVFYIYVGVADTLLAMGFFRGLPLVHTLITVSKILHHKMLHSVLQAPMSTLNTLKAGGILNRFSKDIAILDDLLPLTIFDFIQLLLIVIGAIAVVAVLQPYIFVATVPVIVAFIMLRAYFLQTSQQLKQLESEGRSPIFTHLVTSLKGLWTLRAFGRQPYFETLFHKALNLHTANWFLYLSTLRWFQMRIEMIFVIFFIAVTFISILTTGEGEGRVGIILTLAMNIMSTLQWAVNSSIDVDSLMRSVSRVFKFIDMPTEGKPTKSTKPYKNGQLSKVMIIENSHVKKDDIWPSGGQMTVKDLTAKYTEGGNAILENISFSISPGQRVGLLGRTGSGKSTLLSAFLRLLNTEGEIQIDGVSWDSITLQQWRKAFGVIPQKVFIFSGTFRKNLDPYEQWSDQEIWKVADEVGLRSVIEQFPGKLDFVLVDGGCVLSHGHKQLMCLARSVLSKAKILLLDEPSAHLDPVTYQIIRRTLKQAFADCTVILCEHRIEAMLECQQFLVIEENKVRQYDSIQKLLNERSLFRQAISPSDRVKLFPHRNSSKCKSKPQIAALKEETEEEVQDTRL
row,SMILES,EC50 [µM]
1,"CC(C)(C)OC(=O)NCC(C)(C)c1ccc(NC(=O)c2c[nH]c3ccccc3c2=O)cc1 [compound 88, [2-methyl-2-[4-[(4-oxo-1H-quinolin-3-yl)carbonylamino]phenyl]-propyl]aminoformic acid tert-butyl ester]",< 10
2,"O=C(Nc1ccccc1Oc1ccccc1)c1c[nH]c2ccccc2c1=O [compound 413, 4-oxo-N-(2-phenoxyphenyl)-1H-quinoline-3-carboxamide]",10 to 25
3,"Nc1cccc(NC(=O)c2c[nH]c3ccccc3c2=O)c1 [compound 431, N-(3-aminophenyl)-4-oxo-1H-quinoline-3-carboxamide]",< 10
4,"O=C(Nc1ccc(N2CCOCC2)cc1)c1c[nH]c2ccccc2c1=O [compound 457, N-(4-morpholinophenyl)-4-oxo-1H-quinoline-3-carboxamide]",< 10

# Reference: patent US20140329814A2, “Compositions for Treatment of Cystic Fibrosis and Other Chronic Diseases” (Vertex Pharmaceuticals Incorporated, priority 2010, published 2014)
